Data reported in patent publication EP0075047A1, “1-(Substituted phenylthiocarbamyl) 3,3-disubstituted formamidines and their production and pharmaceutical compositions containing them” (STAUFFER CHEMICAL COMPANY, priority 1981, dated 1983).
Where a name gives a salt, the structure may show the parent alone.

How the values were obtained:
adjuvant arthritis = assay: Adjuvant arthritis inhibition (hind-foot volume, primary and secondary lesions); format: in vivo, Wistar male rats (Taiwan strain); details: five daily doses, rat; for Percent Reduction in Edema of the Primary Lesion: injected right hind paw measured four hours after fifth dose; for Percent Reduction in Edema of the Secondary Lesion: uninjected foot measured fourteen days after adjuvant inoculation
Text: (§1) The first test is for adjuvant arthritis inhibition and the second, an anti-edema test, involves the diminution of experimental edema induced in the hind paw of a rat by the injection of carrageenin.
This test was run according to the test procedure recited by VanArman, G. C., Nuss, G. W. and Risley, E. A., J. Pharmacol..Exper. Terap., 187:400-413, 1973. The following is a description of the test: • The hind-foot volumes of five Wistar male. rats (Taiwan strain) weighing 130-160 g each were measured by fluid displacement immediately prior to intraplantar administration (right hind paw) of 0.1 ml of an adjuvant suspension containing 5 milligrams (mg) Mycobacterium butyricum bacilli suspended in heavy mineral oil. Test compounds were orally administered to the animals for five days beginning the day before injection of the adjuvant. Four hours after the fifth daily drug dose the volume of the right hind paw (primary lesion) was measured for determination of any acute anti-inflammatory effect. Fourteen days after adjuvant inoculation the volume of the uninjected foot was measured (secondary lesion) for determination of prolonged anti-inflammatory effect or immunosuppressant effect. The percent reduction in foot volume was calculated for each hind paw in relation to corresponding control values determined simultaneously. A greater than 30 percent reduction in volume of either paw is considered a significant effect. Reduction of the primary lesion without effect on the secondary lesion denotes acute anti-inflammatory activity of short to moderate duration.

[1] = tested on: carrigeenan-induced swelling; assay: Anti-edema test (carrageenin-induced hind paw edema); format: in vivo, male Wistar rats (Taiwan strain); details: one hour before carrigeenan, measured three hours after injection, rat
Procedure: as §1
Anti-edema effect was determined according to the test procedure recited by Winter, C.A., Risley, E. A., and Nuss, G. W., Proc. Exper. Biol. Med. 111:544-547, 1962. For this test, three male Wistar rats (Taiwan strain) weighing 100-120 g each are orally dosed with test compound dissolved or suspended in 3 ml of water. One hour later, the plantar surface of the right hind paw was injected with 0.1 ml of a 1 percent suspension of carrigeenan in saline and the left paw was similarly injected with saline only. Three hours after the injection the volume of both hind paw was measured by fluid displacement and the percent decrease in carrigeenan-induced swelling (volume of carrigeenan injected foot minus saline injected foot) was determined by comparison with untreated (no test compound) animals. Greater than 30 percent inhibition is considered evidence of an anti-edema effect.

Systolic blood pressure = assay: Anti-hypertensive screening (systolic blood pressure by tail cuff); format: in vivo, normotensive Wistar rats (Taiwan strain); details: 100 mg/kg oral, rat
Procedure: This test was run according to the test procedure recited by Nagoaka, A., Kikuchi, K. and Aramaki, Y., Jap. J. Pharmacol., 19:401-408, 1969. For this test, two normotensive Wistar rats (Taiwan strain) were placed in perspex holders and then placed in a heated chamber at 40°C for 4-6 minutes before treatment. They were maintained there throughout each experiment. Systolic blood pressure was recorded by indirect means employing a tail cuff and pneumatic sensor device applied to the base of the animals' tails. The device was coupled to a programmed Narco-Biosystems sphygmomano meter (Model PE-300), an instrument for measuring blood pressure, and Sanei polygraph. After recording suitably steady blood pressure readings, test drugs were orally administered and blood pressure checked again 2, 4 and 6 hours after drug administration. A mean decrease of more than 10 percent from the pretreatment value at any two consecutive measurement intervals is considered evidence of hypotensive effect.

SMILES | Percent Reduction in Edema of the Primary Lesion (adjuvant arthritis; 100 mg/kg oral) | Percent Reduction in Edema of the Secondary Lesion (adjuvant arthritis; 100 mg/kg oral) | Reduction of Induced Edema ([1]; 100 mg/kg oral) | Percent Mean Decrease in Systolic Blood Pressure (Systolic blood pressure; 2 hours after administration) | Percent Mean Decrease in Systolic Blood Pressure (Systolic blood pressure; 4 hours after administration) | Percent Mean Decrease in Systolic Blood Pressure (Systolic blood pressure; 6 hours after administration) | further results
COc1ccc(NC(=S)N=CN(C)C)cc1 [Compound 1, 1-(p-methoxyphenylthiocarbamyl) 3,3-dimethyl formamidine hydrochloride] |  |  |  |  |  |  | Percent Reduction in Edema of the Primary Lesion (adjuvant arthritis; 5 mg/kg oral): 39%; Percent Reduction in Edema of the Secondary Lesion (adjuvant arthritis; 5 mg/kg oral): 35%; Reduction of Induced Edema ([1]; 5 mg/kg oral): 35%
CN(C)C=NC(=S)Nc1ccc(Cl)cc1 [Compound 2] |  |  |  |  |  |  | Reduction of Induced Edema ([1]; 25 mg/kg oral): 32%
CCc1cccc(CC)c1NC(=S)N=CN(C)C [Compound 3] | 39% | 31% | 33% |  |  |  | 
Cc1ccc(NC(=S)N=CN(C)C)c(C)c1 [Compound 4] | 0% | 0% |  | 4% | 17% | 15% | 
CCCCC1C(=O)N(c2ccccc2)N(c2ccccc2)C1=O [phenylbutazone, reference compound] |  |  | 41% |  |  |  | 
C[C@](N)(Cc1ccc(O)c(O)c1)C(=O)O [α-methyl 3,4-dihydroxy-phenylalanine, reference compound] |  |  |  | 11% | 21% | 19% | 
